Reference: patent publication US20260177565A1, “INHIBITOR FOR GLUCOSE UPTAKE INTO RED BLOOD CELLS, SUPPRESSANT FOR GLUCOSE CONCENTRATION REDUCTION IN BLOOD-COLLECTING TUBE, AND BLOOD-COLLECTING TUBE INCLUDING SAME” (THE UNIVERSITY OF TOKYO, priority 2022, published 2026)
“Also recorded” adds a separate entry of the source.

Test system: red blood cells
Assay: Fluorescently labeled glucose uptake into red blood cells (Glucose Uptake Assay Kit-Green)
Assay type: cell-based, human
Conditions: for uptake of fluorescently labeled glucose / fluorescence in red blood cells (in words): concentrations as in Table 5; for Fluorescence intensity of fluorescently labeled glucose uptake into red blood cells: control (PBS(−)) 613.5
Method: Blood collected in the blood collection tube B from a volunteer subject was centrifuged at 3000 rpm for 5 minutes within 10 minutes, and plasma was discarded to obtain fresh red blood cells. The red blood cells were washed with PBS(−) and used for the following tests (washed red blood cells).
The test substance was dissolved in the amount described in Table 5 with respect to 1 mL of PBS(−). On the other hand, 5 μL of washed red blood cells immersed in PBS(−) and allowed to stand for about 15 minutes were taken out into a test tube, 150 μL each of a test substance solution was added thereto, and this was heated at 37° C. for 15 minutes. Then, 2 μL of a dissolved probe reagent in a glucose uptake assay kit (Glucose Uptake Assay Kit-Green, Dojindo Laboratories Co., Ltd.) was added and heated at 37° C. for 45 minutes. The probe reagent was fluorescently labeled glucose (fluorescently labeled glucose), and a powdered reagent dissolved in 20 μL of DMSO was used.
After the immersion in the reagents of the glucose uptake assay was completed, red blood cells were washed 3 times with 150 μL of a cooled 50-fold diluted WI solution (prepared by diluting the solution provided with the assay reagent 50-fold with PBS(−) at 4° C.), and 150 μL of a cooled 50-fold diluted WI solution was further added and stirred, and then 20 μL of the solution was dropped onto a glass slide and spread over the slide. Slides were photographed with fluorescence microscope.
The remaining red blood cells were centrifuged to discard the supernatant, and 125 μL of water for injection was added to the remaining lower red blood cells to cause hemolysis. The fluorescence intensity of 100 μL of the supernatant obtained by centrifugation was measured using a microplate reader (MTP-800Lab, Corona Electric Co., Ltd.). The measurement conditions were an excitation light wavelength of […] and a measurement fluorescence wavelength of […].

Nc1ncnc2c1ncn2[C@@H]1O[C@H](COP(=O)(O)OP(=O)(O)OP(=O)(O)O)[C@@H](O)[C@H]1O [ATP, adenosine triphosphate]
uptake of fluorescently labeled glucose / fluorescence in red blood cells (in words): the degree of suppression of uptake was much lower than that of inosine | Fluorescence intensity of fluorescently labeled glucose uptake into red blood cells (test substance 1.25 mg/mL in PBS(−)): 163.3

OC[C@H]1O[C@@H](n2cnc3c(O)ncnc32)[C@H](O)[C@@H]1O [Inosine, inosine]
uptake of fluorescently labeled glucose / fluorescence in red blood cells (in words): fluorescence in red blood cells was hardly observed; also recorded: strong inhibitory effect on the uptake of glucose in red blood cells | Fluorescence intensity of fluorescently labeled glucose uptake into red blood cells (test substance 2 mg/mL in PBS(−)): 6.4

[F-].[Na+] [Sodium fluoride, sodium fluoride]
uptake of fluorescently labeled glucose / fluorescence in red blood cells (in words): the degree of suppression of uptake was much lower than that of inosine | Fluorescence intensity of fluorescently labeled glucose uptake into red blood cells (test substance 1.5 mg/mL in PBS(−)): 255.1
